# According to US6048854A, “2,3-diaminopropionic acid derivative” (Sumitomo Pharmaceuticals Company, Limited, priority 1993, dated 2000):
# Test system: platelet aggregation
# Assay: Platelet aggregation inhibitory activity (ADP-induced, human platelet rich plasma)
# Assay type: cell-based
# Settings: Homo sapiens, Table 2, same manner as Example 17
# Procedure: The blood was collected from the elbow vein of a normal volunteer with mixing thereof with 1/10 volume of 3.8% sodium citrate, and the blood was centrifuged at 1000 rpm (150 g) for 10 minutes to give the supernatant as platelet rich plasma (PRP). To PRP (200 μl) was added a test compound solution (2 μl), and the mixture was incubated with stirring at 1000 rpm at 37° C. for two minutes, and thereto was added a platelet aggregator, adenosine diphosphate (ADP, 22 μl) at a final concentration of 3 μg/ml. The platelet aggregation activity was determined by nephelometric analysis using a Hematracer (manufactured by Niko Bioscience, Ltd.). The test results of platelet aggregation inhibitory activity are expressed by IC50, which is a concentration of the test compound being required to inhibit the platelet aggregation reaction by 50%.
# The compounds of Examples 18 to 70 were tested in the same manner as in Example 17.
# The compounds of Examples 72 to 116 were tested in the same manner as in Example 17.
row,Structure (SMILES),IC50
1,"CCCCS(=O)(=O)N[C@@H](CNC(=O)CCCOc1ccc(C(=N)N)cc1)C(=O)O [Example 56, (2S)-3-(4-(4-amidinophenoxy)butanoylamino)-2-butanesulfonylaminopropanoic Acid]",90 nM
2,"O=C(CCNC(=O)COC1CCNCC1)NC[C@H](NS(=O)(=O)c1ccccc1)C(=O)O [Example 55, (2S)-2-benzenesulfonylamino-3-(3-(2-(4-piperidyloxy)ethanoylamino)propanoylamino)propanoic Acid]",300 nM
3,"CCS(=O)(=O)N[C@@H](CNC(=O)CCNC(=O)CCC1CCNCC1)C(=O)O [Example 44, (2S)-2-ethanesulfonylamino-3-(3-(3-(4-piperidyl)propanoylamino)propanoylamino)propanoic Acid]",263 nM
4,"COc1ccc(S(=O)(=O)N[C@@H](CNC(=O)CCCCc2ccc(C(=N)N)cc2)C(=O)O)cc1 [Example 66, (2S)-3-(5-(4-amidinophenyl)pentanoylamino)-2-(4-methoxy)benzenesulfonylaminopropanoic Acid]",16 nM
5,"O=C(CCC1CCNCC1)NCCC(=O)NC[C@H](NS(=O)(=O)c1c(F)c(F)c(F)c(F)c1F)C(=O)O [Example 34, (2S)-2-(2,3,4,5,6-pentafluoro)benzenesulfonylamino-3-(3-(3-(4-piperidyl)propanoylamino)propanoylamino)propanoic Acid]",126 nM
6,"COc1cc(C)c(S(=O)(=O)N[C@@H](CNC(=O)CCNC(=O)CCC2CCNCC2)C(=O)O)c(C)c1C [Example 46, (2S)-2-(4-methoxy-2,3,6-trimethyl)benzenesulfonylamino-3-(3-(3-(4-piperidyl)propanoylamino)propanoylamino)propanoic Acid]",32 nM
7,"CCCc1ccc(S(=O)(=O)N[C@@H](CNC(=O)CCNC(=O)CCC2CCNCC2)C(=O)O)cc1 [Example 49, (2S)-3-(3-(3-(4-piperidyl)propanoylamino)propanoylamino)-2-(4-propyl)benzenesulfonylaminopropanoic Acid]",170 nM

# Next, values leading:
row,IC50,Structure (SMILES)
1,35 nM,"CCc1ccc(S(=O)(=O)N[C@@H](CNC(=O)CCNC(=O)CCC2CCNCC2)C(=O)O)cc1 [Example 38, (2S)-2-(4-ethyl)benzenesulfonylamino-3-(3-(3-(4-piperidyl)propanoylamino)propanoylamino)propanoic Acid]"
2,16 nM,"O=C(CCC1CCNCC1)NCCC(=O)NC[C@H](NS(=O)(=O)c1ccccc1[N+](=O)[O-])C(=O)O [Example 30, (2S)-2-(2-nitro)benzenesulfonylamino-3-(3-(3-(4-piperidyl)propanoylamino)propanoylamino)propanoic Acid]"
3,62 nM,"O=C(CCC1CCNCC1)NCCC(=O)NC[C@H](NS(=O)(=O)c1ccc(Cl)cc1)C(=O)O [Example 36, (2S)-2-(4-chloro)benzenesulfonylamino-3-(3-(3-(4-piperidyl)propanoylamino)propanoylamino)propanoic Acid]"
4,3 nM,"COc1ccc(S(=O)(=O)N[C@@H](CNC(=O)CCNC(=O)CCC2CCNCC2)C(=O)O)cc1 [Example 40, (2S)-2-(4-methoxy)benzenesulfonylamino-3-(3-(3-(4-piperidyl)propanoylamino)propanoylamino)propanoic Acid]"
5,233 nM,"CN(C)c1cccc2c(S(=O)(=O)N[C@@H](CNC(=O)CCNC(=O)CCC3CCNCC3)C(=O)O)cccc12 [Example 42, (2S)-2-(5-dimethylamino-1-naphthalene)sulfonylamino-3-(3-(3-(4-piperidyl)propanoylamino)propanoylamino)propanoic Acid]"
6,35 nM,"O=C(CCC1CCNCC1)NCCC(=O)NC[C@H](NS(=O)(=O)c1cccc2ccccc12)C(=O)O [Example 41, (2S)-2-(1-naphthalene)sulfonylamino-3-(3-(3-(4-piperidyl)propanoylamino)propanoylamino)propanoic Acid]"
7,26 nM,O=C(CCC1CCNCC1)NCCC(=O)NC[C@H](NS(=O)(=O)c1ccccc1C(F)(F)F)C(=O)O [Example 27]
8,260 nM,"O=C(CCC1CCNCC1)NCCC(=O)NC[C@H](NS(=O)(=O)c1ccc2ccccc2c1)C(=O)O [Example 43, (2S)-2-(2-naphthalene)sulfonylamino-3-(3-(3-(4-piperidyl)propanoylamino)propanoylamino)propanoic Acid]"
9,29 nM,"Cc1ccc(S(=O)(=O)N[C@@H](CNC(=O)CCNC(=O)CCC2CCNCC2)C(=O)O)cc1 [Example 26, (2S)-2-(4-methyl)benzenesulfonylamino-3-(3-(3-(4-piperidyl)propanoylamino)propanoylamino)propanoic Acid]"
10,30 nM,"Cc1ccccc1S(=O)(=O)N[C@@H](CNC(=O)CCNC(=O)CCC1CCNCC1)C(=O)O [Example 24, (2S)-2-(2-methyl)benzenesulfonylamino-3-(3-(3-(4-piperidyl)propanoylamino)propanoylamino)propanoic Acid]"

# Same assay, conditions: Homo sapiens, Table 3, same manner as Example 17
row,IC50,Structure (SMILES)
1,162 nM,"N=C(N)c1ccc(C(=O)NCCC(=O)NC[C@@H](NS(=O)(=O)c2ccccc2)C(=O)O)cc1 [Example 73, (2R)-3-(3-(4-amidinobenzoylamino)propanoylamino)-2-benzenesulfonylaminopropanoic Acid]"
2,57 nM,"CN(CCC(=O)NC[C@H](NS(=O)(=O)c1ccccc1)C(=O)O)C(=O)c1ccc(C(=N)N)cc1 [Example 96, (2S)-3-(3-(4-amidinobenzoylmethylamino)propanoylamino)-2-benzensulfonylaminopropanoic Acid]"
3,31 nM,"N=C(N)c1ccc(C(=O)CCCCC(=O)NC[C@H](NS(=O)(=O)c2ccccc2)C(=O)O)cc1 [Example 94, (2S)-3-(5-(4-amidinobenzoyl)pentanoylamino)-2-benzenesulfonylaminopropanoic Acid]"
4,103 nM,"N=C(NN)c1ccc(C(=O)NCCC(=O)NC[C@H](NS(=O)(=O)c2ccccc2)C(=O)O)cc1 [Example 101, (2S)-2-benzenesulfonylamino-3-(3-(4-hydrazinoiminobenzoylamino)propanoylamino)propanoic Acid]"
5,22 nM,"N=C(NC1CCCCC1)c1ccc(C(=O)NCCC(=O)NC[C@H](NS(=O)(=O)c2ccccc2)C(=O)O)cc1 [Example 105, (2S)-2-benzenesulfonylamino-3-(3-(4-(N-cyclohexylamidino)benzoylamino)propanoylamino)propanoic Acid]"
6,25 nM,"CCCCNC(=N)c1ccc(C(=O)NCCC(=O)NC[C@H](NS(=O)(=O)c2ccccc2)C(=O)O)cc1 [Example 103, (2S)-2-benzenesulfonylamino-3-(3-(4-(N-n-butylamidino)benzoylamino)propanoylamino)propanoic Acid]"
7,26 nM,"CCc1ccc(S(=O)(=O)N[C@@H](CNC(=O)CCCCc2ccc(C(=N)N)cc2)C(=O)O)cc1 [Example 89, (2S)-3-(5-(4-amidinophenyl)pentanoylamino)-2-(4-ethyl)benzenesulfonylaminopropanoic Acid]"
8,29 nM,"CNC(=N)c1ccc(OCCCC(=O)NC[C@H](NS(=O)(=O)c2ccccc2)C(=O)O)cc1 [Example 107, (2S)-2-benzenesulfonylamino-3-(4-(4-(N-methylamidino)phenoxy)butanoylamino)propanoic Acid]"
9,48 nM,"CC(C)(C)C(=O)OCOC(=O)[C@H](CNC(=O)CCCOc1ccc(C(=N)N)cc1)NS(=O)(=O)c1ccccc1 [Example 113, (2S)-3-(4-(4-amidinophenoxy)butanoylamino)-2-benzenesulfonylaminopropanoicAcid Pivaloyloxymethyl Ester]"
10,28 nM,"N=C(N)c1ccc(C(=O)NCCC(=O)NC[C@H](NS(=O)(=O)c2ccccc2N)C(=O)O)cc1 [Example 81, (2S)-3-(3-(4-amidinobenzoylamino)propanoylamino)-2-(2-amino)benzenesulfonylaminopropanoic Acid]"

# Same assay, conditions: Table 1, human PRP, ADP 3 μg/ml, 37° C.
row,IC50,Structure (SMILES)
1,1220 nM,"CCCCS(=O)(=O)N[C@@H](CNC(=O)CNC(=O)[C@H](C)N(C)C(=O)CCC1CCNCC1)C(=O)O [Example 7, (2S)-2-butanesulfonylamino-3-(N-(3-(4-piperidyl)propanoyl)-N-methyl-L-alanylglycylamino)propanoic Acid]"
2,583 nM,"CCCCS(=O)(=O)N[C@@H](CNC(=O)CNC(=O)CCCCCC1CCNCC1)C(=O)O [Example 8, (2S)-2-butanesulfonylamino-3-(N-(6-(4-piperidyl)hexanoyl)glycylamino)propanoic Acid]"
3,1810 nM,"CCCCS(=O)(=O)N[C@@H](CNC(=O)CCNC(=O)CCCCC1CCNCC1)C(=O)O [Example 13, (2S)-2-butanesulfonylamino-3-(3-(5-(4-piperidyl)pentanoylamino)propanoylamino)propanoic Acid]"
4,5240 nM,"CCCCS(=O)(=O)N[C@@H](CNC(=O)CNC(=O)[C@H](C)NC(=O)CCC1CCNCC1)C(=O)O [Example 15, (2S)-2-butanesulfonylamino-3-(N-(3-(4-piperidyl)propanoyl)-L-alanylglycylamino)propanoic Acid]"
5,376 nM,"O=C(CCC(=O)NC[C@H](NS(=O)(=O)c1ccccc1)C(=O)O)NCCC1CCNCC1 [Example 6, (2S)-2-benzenesulfonylamino-3-(N-(2-(4-piperidyl)ethyl)succinamylamino)propanoic Acid]"
6,2530 nM,"COc1ccc(C[C@H](NC(=O)CCC2CCNCC2)C(=O)NCC(=O)NC[C@H](NS(C)(=O)=O)C(=O)O)cc1 [Example 16, (2S)-2-methanesulfonylamino-3-(N-(3-(4-piperidyl)propanoyl)-O-methyl-L-tyrosylglycylamino)propanoic Acid]"
